Measured values: patent US20240041877A1, “DOSAGE REGIME AND METHOD FOR TREATING PULMONARY ARTERIAL HYPERTENSION” (Altavant Sciences GmbH, priority 2019, published 2024)

Experiment: Part 2 (MAD): plasma pharmacokinetics after BID oral KAR5585 for 14 days (incl. accumulation ratios and dose proportionality)
[1] = 100 mg (Cohort 2) to 400 mg (Cohort 4), 4-fold increase in dose, fed
[2] = 100 mg KAR5585 BID, fasted, Cohort 1
[3] = 100 mg KAR5585 BID, fasted, Part 2 Cohort 1, mean
[4] = 100 mg KAR5585 BID, fed, Cohort 2
[5] = 100 mg KAR5585 BID, fed, Part 2 Cohort 2, mean
[6] = KAR5585 100 mg BID fasted, Cohort 1, Day 1 AM, geo. mean
[7] = KAR5585 100 mg BID fasted, Cohort 1, Day 1 AM, mean
[8] = KAR5585 100 mg BID fasted, Cohort 1, Day 14/Day 1 accumulation ratio, geo. mean
[9] = KAR5585 100 mg BID fasted, Cohort 1, Day 14/Day 1 accumulation ratio, mean
[10] = KAR5585 100 mg BID fasted, Cohort 1, Day 14, geo. mean
[11] = KAR5585 100 mg BID fasted, Cohort 1, Day 14, mean
[12] = KAR5585 100 mg BID fed, Cohort 2, Day 1 AM, geo. mean
[13] = KAR5585 100 mg BID fed, Cohort 2, Day 1 AM, mean
[14] = KAR5585 100 mg BID fed, Cohort 2, Day 1 PM, geo. mean
[15] = KAR5585 100 mg BID fed, Cohort 2, Day 1 PM, mean
[16] = KAR5585 100 mg BID fed, Cohort 2, Day 7 AM, Day 7/Day 1 accumulation ratio, geo. mean
[17] = KAR5585 100 mg BID fed, Cohort 2, Day 7 AM, Day 7/Day 1 accumulation ratio, mean
[18] = KAR5585 100 mg BID fed, Cohort 2, Day 7 AM, geo. mean
[19] = KAR5585 100 mg BID fed, Cohort 2, Day 7 AM, mean
[20] = KAR5585 100 mg BID fed, Cohort 2, Day 7 PM, Day 7/Day 1 accumulation ratio, geo. mean
[21] = KAR5585 100 mg BID fed, Cohort 2, Day 7 PM, Day 7/Day 1 accumulation ratio, mean
[22] = KAR5585 100 mg BID fed, Cohort 2, Day 7 PM, geo. mean
[23] = KAR5585 100 mg BID fed, Cohort 2, Day 7 PM, mean
[24] = KAR5585 100 mg BID fed, Cohort 2, Day 14 AM, Day 14/Day 1 accumulation ratio, geo. mean
[25] = KAR5585 100 mg BID fed, Cohort 2, Day 14 AM, Day 14/Day 1 accumulation ratio, mean
[26] = KAR5585 100 mg BID fed, Cohort 2, Day 14 AM, geo. mean
[27] = KAR5585 100 mg BID fed, Cohort 2, Day 14 AM, mean
[28] = KAR5585 200 mg BID fed, Cohort 3, Day 1 AM, geo. mean
[29] = KAR5585 200 mg BID fed, Cohort 3, Day 1 AM, mean
[30] = KAR5585 200 mg BID fed, Cohort 3, Day 1 PM, geo. mean

Source text: Food effect was to be evaluated in Part 1, Period 2.
Pharmacokinetic data were to be summarized descriptively.

## Nc1nc(O[C@H](c2ccc(Cl)cc2-c2ccccc2)C(F)(F)F)cc(N2CCC3(CC2)CN[C@H](C(=O)O)C3)n1 [KAR5417, (S)-8-(2-amino-6-((R)-1-(5-chloro-[1,1T-biphenyl]-2-yl)-2,2,2-trifluoroeth-oxy)pyrimidin-4-yl)-2,8-diazaspiro[4.5]decane-3-carboxylic acid]
[1]
  fold increase in mean AUC0-12, Day 1: 7.0 fold
  fold increase in mean AUC0-12, Day 14: 4.6 fold
  fold increase in mean AUC0-24, Day 1: 6.45 fold
  fold increase in mean AUC0-24, Day 14: 4.45 fold
  fold increase in mean Cmax, Day 1: 6.9 fold
  fold increase in mean Cmax, Day 14: ~4.5 fold
100 mg KAR5585 BID
  RAUC0-12 (accumulation ratio for AUC0-12), range Day 7/Day 1 and Day 14/Day 1: 2.19-2.57
100 mg KAR5585 BID, fasted
  half-life, Day 14: 18.8 h
[2]
  peak mean concentration of KAR5417 relative to KAR5585, Day 1: approximately 7.25 fold
  peak mean concentration of KAR5417 relative to KAR5585, Day 14: ~9.1 fold
  time peak plasma concentrations were reached, Day 1: 2.0 to 6.0 h
[3]
  AUC0-12, Day 1: 741 ng·h/mL
  AUC0-24, Day 14: 1650 ng·h/mL
100 mg KAR5585 BID, fed
  mean apparent elimination half-life, Day 14: 19.6 h
[4]
  Cmax (peak mean concentration), Day 1: 85.9 ng/mL
  Cmax (peak mean concentration), Day 14: 168 ng/mL
  mean Cmax plasma concentrations, range on all dosing days: 85.9 to 168 ng/mL
[5]
  AUC0-12, Day 1: 470 ng·h/mL
  AUC0-24, Day 14: 1220 ng·h/mL
200 mg KAR5585 BID
  RAUC0-12 (accumulation ratio for AUC0-12), range Day 7/Day 1 and Day 14/Day 1: 1.09-1.34
200 mg KAR5585 BID, fed
  mean apparent elimination half-life, Day 14: 25.0 h
400 mg KAR5585 BID
  RAUC0-12 (accumulation ratio for AUC0-12), range Day 7/Day 1 and Day 14/Day 1: 1.65-2.38
400 mg KAR5585 BID, fed
  mean apparent elimination half-life, Day 14: 30.6 h
BID oral KAR5585 for 14 days
  steady-state plasma levels achieved by: ≤ 7 days
[6]
  AUC0-12: 643 ng·h/mL
  AUC0-∞: 769 ng·h/mL
  C12: 19.5 ng/mL
  Cmax: 101 ng/mL
  Cmax/D: 1.01 (ng/ml)/mg
  t1/2: 3.37 h
[7]
  AUC0-12: 741 ng·h/mL
  AUC0-∞: 876 ng·h/mL
  C12: 21.3 ng/mL
  Cmax/D: 1.21 (ng/ml)/mg
  t1/2: 3.43 h
[8]
  RAUC0-12: 1.64
  RCmax: 1.75
[9]
  RAUC0-12: 1.83
  RCmax: 2.56
[10]
  AUC0-12: 1150 ng·h/mL
  AUC0-24: 1490 ng·h/mL
  AUC0-24/D: 14.9 (hr*ng/ml)/mg
  AUC0-∞: 1960 ng·h/mL
  C12: 42.0 ng/mL
  C24: 18.1 ng/mL
  Cmax: 177 ng/mL
  Cmax/D: 1.77 (ng/ml)/mg
  t1/2: 17.6 h
[11]
  AUC0-12: 1280 ng·h/mL
  AUC0-24: 1650 ng·h/mL
  AUC0-24/D: 16.5 (hr*ng/ml)/mg
  AUC0-∞: 2220 ng·h/mL
  C12: 46.3 ng/mL
  Cmax/D: 1.94 (ng/ml)/mg
  t1/2: 18.8 h
[12]
  AUC0-12: 428 ng·h/mL
  AUC0-∞: 516 ng·h/mL
  C12: 15.4 ng/mL
  Cmax: 79.2 ng/mL
  Cmax/D: 0.792 (ng/ml)/mg
  t1/2: 4.16 h
[13]
  AUC0-12: 470 ng·h/mL
  AUC0-∞: 564 ng·h/mL
  C12: 17.2 ng/mL
  Cmax: 85.9 ng/mL
  Cmax/D: 0.859 (ng/ml)/mg
  t1/2: 4.18 h
[14]
  AUC0-12: 714 ng·h/mL
  AUC0-24/D: 5.78 (hr*ng/ml)/mg
  AUC0-∞: 1090 ng·h/mL
  C12: 39.5 ng/mL
  Cmax: 119 ng/mL
  Cmax/D: 1.19 (ng/ml)/mg
  t1/2: 6.95 h
[15]
  AUC0-12: 748 ng·h/mL
  AUC0-24: 1220 ng·h/mL
  AUC0-24/D: 6.09 (hr*ng/ml)/mg
  AUC0-∞: 1140 ng·h/mL
  C12: 43.1 ng/mL
  Cmax: 130 ng/mL
  Cmax/D: 1.3 (ng/ml)/mg
  t1/2: 7.00 h
[16]
  RAUC0-12: 2.45
  RCmax: 2.02
[17]
  RAUC0-12: 2.57
  RCmax: 2.07
[18]
  AUC0-12: 1050 ng·h/mL
  AUC0-∞: 1380 ng·h/mL
  C12: 44.3 ng/mL
  Cmax/D: 1.60 (ng/ml)/mg
  t1/2: 5.24 h
[19]
  AUC0-12: 1080 ng·h/mL
  AUC0-∞: 1410 ng·h/mL
  C12: 45.1 ng/mL
  Cmax: 168 ng/mL
  Cmax/D: 1.68 (ng/ml)/mg
  t1/2: 5.31 h
[20]
  RAUC0-12: 2.04
  RCmax: 1.34
[21]
  RAUC0-12: 2.19
  RCmax: 1.43
[22]
  AUC0-12: 875 ng·h/mL
  AUC0-24: 1930 ng·h/mL
  AUC0-24/D: 9.64 (hr*ng/ml)/mg
  AUC0-∞: 1700 ng·h/mL
  C12: 61.4 ng/mL
  Cmax: 106 ng/mL
  Cmax/D: 1.06 (ng/ml)/mg
  t1/2: 7.91 h
[23]
  AUC0-12: 902 ng·h/mL
  AUC0-24: 1990 ng·h/mL
  AUC0-24/D: 9.93 (hr*ng/ml)/mg
  AUC0-∞: 1730 ng·h/mL
  C12: 62.3 ng/mL
  Cmax/D: 1.12 (ng/ml)/mg
  t1/2: 8.10 h
[24]
  RAUC0-12: 2.09
  RCmax: 1.90
[25]
  RAUC0-12: 2.23
  RCmax: 1.98
[26]
  AUC0-12: 900 ng·h/mL
  AUC0-24: 1220 ng·h/mL
  AUC0-∞: 1780 ng·h/mL
  C12: 35.4 ng/mL
  C24: 19.3 ng/mL
  Cmax: 155 ng/mL
  Cmax/D: 1.55 (ng/ml)/mg
  t1/2: 19.0 h
[27]
  AUC0-12: 943 ng·h/mL
  AUC0-24: 1270 ng·h/mL
  AUC0-∞: 1830 ng·h/mL
  C12: 36.4 ng/mL
  C24: 19.6 ng/mL
  Cmax: 168 ng/mL
  Cmax/D: 1.68 (ng/ml)/mg
  t1/2: 19.6 h
[28]
  AUC0-12: 1620 ng·h/mL
  AUC0-∞: 1980 ng·h/mL
  C12: 56.6 ng/mL
  Cmax: 336 ng/mL
  Cmax/D: 1.68 (ng/ml)/mg
  t1/2: 4.41 h
[29]
  AUC0-12: 1700 ng·h/mL
  C12: 60.7 ng/mL
  Cmax: 357 ng/mL
  Cmax/D: 1.79 (ng/ml)/mg
  t1/2: 4.49 h
[30]
  AUC0-12: 1910 ng·h/mL
  AUC0-24: 3540 ng·h/mL
  AUC0-24/D: 8.85 (hr*ng/ml)/mg
  AUC0-∞: 2640 ng·h/mL
  C12: 102 ng/mL
  Cmax: 307 ng/mL
  Cmax/D: 1.54 (ng/ml)/mg
